Reference: patent US20230085307A1, “PYRIDAZINONE COMPOUND AND HERBICIDE” (NISSAN CHEMICAL CORPORATION, priority 2019, published 2023)

What was measured:
redroot pigweed [1] = experiment: Test Example 4: herbicidal effect by soil treatment (Table 19, symbol N); assay type: in vivo, redroot pigweed (Amaranthus retroflexus); details: amount of applied herbicide 320 g/ha
Summary of the method: (§1)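 Scoring uses the grading scale of an earlier test, three weeks post-application. Treatment consists of spraying a diluted emulsion formulation across the surface of sterilized diluvial soil in which seeds are buried near 1.5 cm deep; boxes are kept in a greenhouse between 25° C. and 30° C.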

persian speedwell [2] = experiment: Test Example 4: herbicidal effect by soil treatment (Table 19, symbol R); assay type: in vivo, Persian speedwell (Veronica persica); details: amount of applied herbicide 320 g/ha
Summary of the method: as §1

persian speedwell [3] = experiment: Test Example 5: herbicidal effect by foliage application, plastic box (Table 20, symbol R); assay type: in vivo, Persian speedwell (Veronica persica); details: foliage application, 320 g/ha, three weeks after application
Summary of the method: (§2)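 Post-emergence foliar test in sterilized diluvial soil. Compound applied as water-diluted emulsion at a predetermined rate to 14-day-old plants; evaluation at three weeks.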

Italian ryegrass [4] = experiment: Test Example 5: herbicidal effect by foliage application, plastic box (Table 20, symbol K); assay type: in vivo, Italian ryegrass (Lolium multiflorum); details: foliage application, 320 g/ha, three weeks after application
Summary of the method: as §2

Italian ryegrass [5] = experiment: Test Example 4: herbicidal effect by soil treatment (Table 19, symbol K); assay type: in vivo, Italian ryegrass (Lolium multiflorum); details: amount of applied herbicide 320 g/ha
Summary of the method: as §1

Chinese sprangletop = experiment: Test Example 3: herbicidal effect by foliage application, Wagner pot (Table 18, symbol D); assay type: in vivo, chinese sprangletop (Leptochloa chinensis); details: 320 g/ha
Summary of the method: (§3)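 Plants were sown in alluvial soil held under 0.1–0.5 cm standing water and grown 14 days in a greenhouse at 25–30 °C. An emulsifiable formulation, water-diluted to the set dose, was then sprayed onto the foliage, and effects were scored three weeks later using previously defined criteria.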

rice flat sedge = experiment: Test Example 3: herbicidal effect by foliage application, Wagner pot (Table 18, symbol E); assay type: in vivo, rice flat sedge (Cyperus iria); details: 320 g/ha
Summary of the method: as §3

barnyard grass [6] = experiment: Test Example 4: herbicidal effect by soil treatment (Table 19, symbol H); assay type: in vivo, barnyard grass (Echinochloa crus-galli); details: amount of applied herbicide 320 g/ha
Summary of the method: as §1

velvetleaf [7] = experiment: Test Example 4: herbicidal effect by soil treatment (Table 19, symbol M); assay type: in vivo, velvetleaf (Abutilon theophrasti); details: amount of applied herbicide 320 g/ha
Summary of the method: as §1

barnyard grass [8] = experiment: Test Example 3: herbicidal effect by foliage application, Wagner pot (Table 18, symbol H); assay type: in vivo, barnyard grass (Echinochloa crus-galli); details: 320 g/ha
Summary of the method: as §3

false cleavers [9] = experiment: Test Example 4: herbicidal effect by soil treatment (Table 19, symbol Q); assay type: in vivo, false cleavers (Galium spurium); details: amount of applied herbicide 320 g/ha
Summary of the method: as §1

late watergrass = experiment: Test Example 2: herbicidal activity, application during weed generation under submerged conditions (Table 17, symbol A); assay type: in vivo, late watergrass (Echinochloa oryzicola); details: AAH 320 g/ha; application during weed generation, submerged conditions
Summary of the method: (§4)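 Alluvial soil in Wagner pots was flooded to 4 cm depth and sown with the three weeds together; pots were kept in a greenhouse at 25° C. to 30° C. At the one to two leaf stage, an emulsion formulation diluted in water to a set rate went onto the water surface; scored three weeks later.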

chickweed [10] = experiment: Test Example 5: herbicidal effect by foliage application, plastic box (Table 20, symbol P); assay type: in vivo, common chickweed (Stellaria media); details: foliage application, 320 g/ha, three weeks after application
Summary of the method: as §2

southern crabgrass [11] = experiment: Test Example 5: herbicidal effect by foliage application, plastic box (Table 20, symbol F); assay type: in vivo, southern crabgrass (Digitaria ciliaris); details: foliage application, 320 g/ha, three weeks after application
Summary of the method: as §2

windgrass = experiment: Test Example 5: herbicidal effect by foliage application, plastic box (Table 20, symbol L); assay type: in vivo, windgrass (Apera spica-venti); details: foliage application, 320 g/ha, three weeks after application
Summary of the method: as §2

green foxtail [12] = experiment: Test Example 4: herbicidal effect by soil treatment (Table 19, symbol G); assay type: in vivo, green foxtail (Setaria viridis); details: amount of applied herbicide 320 g/ha
Summary of the method: as §1

lambsquarters = experiment: Test Example 5: herbicidal effect by foliage application, plastic box (Table 20, symbol O); assay type: in vivo, lambsquarters (Chenopodium album); details: foliage application, 320 g/ha, three weeks after application
Summary of the method: as §2

velvetleaf [13] = experiment: Test Example 5: herbicidal effect by foliage application, plastic box (Table 20, symbol M); assay type: in vivo, velvetleaf (Abutilon theophrasti); details: foliage application, 320 g/ha, three weeks after application
Summary of the method: as §2

chickweed [14] = experiment: Test Example 4: herbicidal effect by soil treatment (Table 19, symbol P); assay type: in vivo, common chickweed (Stellaria media); details: amount of applied herbicide 320 g/ha
Summary of the method: as §1

wild oat [15] = experiment: Test Example 5: herbicidal effect by foliage application, plastic box (Table 20, symbol I); assay type: in vivo, wild oat (Avena fatua); details: foliage application, 320 g/ha, three weeks after application
Summary of the method: as §2

wild oat [16] = experiment: Test Example 4: herbicidal effect by soil treatment (Table 19, symbol I); assay type: in vivo, wild oat (Avena fatua); details: amount of applied herbicide 320 g/ha
Summary of the method: as §1

oval-leafed pondweed = experiment: Test Example 2: herbicidal activity, application during weed generation under submerged conditions (Table 17, symbol C); assay type: in vivo, oval-leafed pondweed (Monochoria vaginalis); details: AAH 320 g/ha; application during weed generation, submerged conditions
Summary of the method: as §4

barnyard grass [17] = experiment: Test Example 5: herbicidal effect by foliage application, plastic box (Table 20, symbol H); assay type: in vivo, barnyard grass (Echinochloa crus-galli); details: foliage application, 320 g/ha, three weeks after application
Summary of the method: as §2

blackgrass [18] = experiment: Test Example 5: herbicidal effect by foliage application, plastic box (Table 20, symbol J); assay type: in vivo, blackgrass (Alopecurus myosuroides); details: foliage application, 320 g/ha, three weeks after application
Summary of the method: as §2

false cleavers [19] = experiment: Test Example 5: herbicidal effect by foliage application, plastic box (Table 20, symbol Q); assay type: in vivo, false cleavers (Galium spurium); details: foliage application, 320 g/ha, three weeks after application
Summary of the method: as §2

Japanese bulrush = experiment: Test Example 2: herbicidal activity, application during weed generation under submerged conditions (Table 17, symbol B); assay type: in vivo, Japanese bulrush (Schoenoplectus juncoides); details: AAH 320 g/ha; application during weed generation, submerged conditions
Summary of the method: as §4

redroot pigweed [20] = experiment: Test Example 5: herbicidal effect by foliage application, plastic box (Table 20, symbol N); assay type: in vivo, redroot pigweed (Amaranthus retroflexus); details: foliage application, 320 g/ha, three weeks after application
Summary of the method: as §2

blackgrass [21] = experiment: Test Example 4: herbicidal effect by soil treatment (Table 19, symbol J); assay type: in vivo, blackgrass (Alopecurus myosuroides); details: amount of applied herbicide 320 g/ha
Summary of the method: as §1

southern crabgrass [22] = experiment: Test Example 4: herbicidal effect by soil treatment (Table 19, symbol F); assay type: in vivo, southern crabgrass (Digitaria ciliaris); details: amount of applied herbicide 320 g/ha
Summary of the method: as §1

green foxtail [23] = experiment: Test Example 5: herbicidal effect by foliage application, plastic box (Table 20, symbol G); assay type: in vivo, green foxtail (Setaria viridis); details: foliage application, 320 g/ha, three weeks after application
Summary of the method: as §2

SMILES: COc1ccc(-c2sc3ccccc3c2-c2c(O)c(C)nn(C)c2=O)cc1C [1-068]
- herbicidal effect rating, N: redroot pigweed (redroot pigweed [1]): 0 (Herbicidal rate of 5% or less (almost no effect))
- herbicidal effect rating, R: persian speedwell (persian speedwell [2]): 4 (Herbicidal rate of 70% or more and less than 90%)
- herbicidal effect grade, R: persian speedwell (persian speedwell [3]): 5 (Herbicidal rate of 90% or more (almost completely withered))
- herbicidal effect grade, K: Italian ryegrass (Italian ryegrass [4]): 3 (Herbicidal rate of 40% or more and less than 70%)
- herbicidal effect rating, K: Italian ryegrass (Italian ryegrass [5]): 2 (Herbicidal rate of 20% or more and less than 40%)
- herbicidal effect on D (Chinese sprangletop), rating 0-5 (Chinese sprangletop): 1 (Herbicidal rate of 5% or more and less than 20%)
- herbicidal effect on E (rice flat sedge), rating 0-5 (rice flat sedge): 5 (Herbicidal rate of 90% or more (almost completely withered))
- herbicidal effect rating, H: barnyard grass (barnyard grass [6]): 4 (Herbicidal rate of 70% or more and less than 90%)
- herbicidal effect rating, M: velvetleaf (velvetleaf [7]): 0 (Herbicidal rate of 5% or less (almost no effect))
- herbicidal effect on H (barnyard grass), rating 0-5 (barnyard grass [8]): 3 (Herbicidal rate of 40% or more and less than 70%)
- herbicidal effect rating, Q: false cleavers (false cleavers [9]): 0 (Herbicidal rate of 5% or less (almost no effect))
- herbicidal effect rating, A: late watergrass (late watergrass): 0 (Herbicidal rate of 5% or less (almost no effect))
- herbicidal effect grade, P: chickweed (chickweed [10]): 5 (Herbicidal rate of 90% or more (almost completely withered))
- herbicidal effect grade, F: southern crabgrass (southern crabgrass [11]): 3 (Herbicidal rate of 40% or more and less than 70%)
- herbicidal effect grade, L: windgrass (windgrass): 0 (Herbicidal rate of 5% or less (almost no effect))
- herbicidal effect rating, G: green foxtail (green foxtail [12]): 4 (Herbicidal rate of 70% or more and less than 90%)
- herbicidal effect grade, O: lambsquarters (lambsquarters): 3 (Herbicidal rate of 40% or more and less than 70%)
- herbicidal effect grade, M: velvetleaf (velvetleaf [13]): 3 (Herbicidal rate of 40% or more and less than 70%)
- herbicidal effect rating, P: chickweed (chickweed [14]): 2 (Herbicidal rate of 20% or more and less than 40%)
- herbicidal effect grade, I: wild oat (wild oat [15]): 1 (Herbicidal rate of 5% or more and less than 20%)
- herbicidal effect rating, I: wild oat (wild oat [16]): 0 (Herbicidal rate of 5% or less (almost no effect))
- herbicidal effect rating, C: oval-leafed pondweed (oval-leafed pondweed): 3 (Herbicidal rate of 40% or more and less than 70%)
- herbicidal effect grade, H: barnyard grass (barnyard grass [17]): 3 (Herbicidal rate of 40% or more and less than 70%)
- herbicidal effect grade, J: blackgrass (blackgrass [18]): 0 (Herbicidal rate of 5% or less (almost no effect))
- herbicidal effect grade, Q: false cleavers (false cleavers [19]): 0 (Herbicidal rate of 5% or less (almost no effect))
- herbicidal effect rating, B: Japanese bulrush (Japanese bulrush): 1 (Herbicidal rate of 5% or more and less than 20%)
- herbicidal effect grade, N: redroot pigweed (redroot pigweed [20]): 0 (Herbicidal rate of 5% or less (almost no effect))
- herbicidal effect rating, J: blackgrass (blackgrass [21]): 0 (Herbicidal rate of 5% or less (almost no effect))
- herbicidal effect rating, F: southern crabgrass (southern crabgrass [22]): 0 (Herbicidal rate of 5% or less (almost no effect))
- herbicidal effect grade, G: green foxtail (green foxtail [23]): 3 (Herbicidal rate of 40% or more and less than 70%)
